Patent US20260137664A1, “THERAPEUTIC AGENT FOR INTRACTABLE LYMPHATIC DISEASE AND INTRACTABLE VASCULAR DISEASE” (NATIONAL UNIVERSITY CORPORATION TOKAI NATIONAL HIGHER …, priority 2022, published 2026)

Experiment: Population pharmacokinetic (PPK) analysis, nonlinear mixed effects model, two-compartment model
Format: in vivo, patients and healthy adults
Excerpt: The memory unit 12 stores pre-constructed PK (pharmacokinetics) model information. Specifically, it stores a blood concentration calculation formula for the active ingredient sirolimus when the drug is repeatedly administered, a parameter calculation formula for calculating parameters corresponding to patient information, and pre-constructed estimated values of pharmacokinetic parameters. The blood concentration calculation formula is a formula that expresses the blood sirolimus concentration based on a two-compartment model. The parameters corresponding to patient information are parameters used in the blood concentration calculation formula, and are standard parameters for estimating the blood sirolimus concentration of patients who have the same patient information (also referred to as “patient background”). In this document, these are referred to as “standard PK parameters”.
Here, ka is the absorption rate constant (h−1), Cl/F is the clearance (L/h), V1/F is the volume of the first compartment (L), V2/F is the volume of the second compartment (L), and Q/F is the intercompartmental clearance […]. The values of these parameters are related to the patient's weight and age, the dosage form of the administered drug, and the presence or absence of concomitant use of a CYP3A4 inhibitor or CYP3A4 inducer. Di is the dose of the drug.
Each parameter in the blood concentration calculation formula is expressed as a function with the patient's weight and age, the dosage form of the drug, etc. as variables. This function corresponds to the parameter calculation formula for calculating the parameters corresponding to the patient. This parameter calculation formula is obtained in advance by population pharmacokinetic analysis using a nonlinear mixed effects model.
In formula (2), TVka is the typical value of the absorption rate constant ka, and is obtained in advance by population pharmacokinetic analysis. In this embodiment, the point estimate of TVKa is 0.235 (h−1), the relative error is 1.17%, and the 95% confidence interval is 0.229-0.240.
In formula (3), TVCl is a typical value of clearance Cl/F, and is obtained in advance by population pharmacokinetic analysis. In this embodiment, the point estimate of TVCl is 6.44 (L/h), the relative error is 6.04%, and the width of the 95% confidence interval is 5.72-7.25. WT is the patient's body weight. PMA (Post menstrual age) is the age after the last menstrual period (gestational age+postnatal age) and corresponds to the patient's age. e^ηCL represents inter-individual variation. When there is no actual measured value for the patient, ηCL is 0, and the inter-individual variation is 1. “Clinical trials assay” refers to a blood sample stored frozen, and in the case of a blood sample stored frozen, it is multiplied by 1.92. In the case of a blood sample stored refrigerated, it is multiplied by 1. “CYP3A4 fold change” is a coefficient that is determined according to the concomitant drug when there is a concomitant drug. The coefficient will be described later with reference to FIG. 9.
In formula (4), TVV1 is a typical value of the volume of the first compartment V1/F, and is obtained in advance by population pharmacokinetic analysis. In the embodiment, the point estimate of TVV1 is 176 (L), the relative error is 2.43%, and the width of the 95% confidence interval is 168-185. WT is the patient's body weight. eηV1 represents inter-individual variation. When there is no actual measured value for the patient, ηV1 is 0, and the inter-individual variation is 1. Depending on the information that can be obtained, it may be difficult to estimate the random effect of the patient on V1, and in such a case, the inter-individual variation for V1 may be set to 1 for all patients.
In formula (5), TVV2 is the typical value of the volume of the second compartment V2/F, and is determined in advance by population pharmacokinetic analysis. […]

- TVka, typical value of the absorption rate constant ka (point estimate) (population pharmacokinetic analysis, relative error 1.17%, 95% confidence interval 0.229-0.240): 0.235 h⁻¹
- TVV1, typical value of the volume of the first compartment V1/F (point estimate) (population pharmacokinetic analysis, relative error 2.43%, 95% confidence interval 168-185): 176 L
- TVQ, typical value of the intercompartmental clearance Q/F (point estimate) (population pharmacokinetic analysis, relative error 4.07%, 95% confidence interval 31.0-36.3): 33.6 L/h
- TVCl, typical value of clearance Cl/F (point estimate) (population pharmacokinetic analysis, relative error 6.04%, 95% confidence interval 5.72-7.25): 6.44 L/h
- TVV2, typical value of the volume of the second compartment V2/F (point estimate) (population pharmacokinetic analysis, relative error 13%, 95% confidence interval 218-362): 281 L
- factor by which TVka is multiplied (when the drug is a granule (Granule formulation), formula (2)): 4.26
SMILES: CO[C@H]1C[C@@H]2CC[C@@H](C)[C@@](O)(O2)C(=O)C(=O)N2CCCC[C@H]2C(=O)O[C@H]([C@H](C)C[C@@H]2CC[C@@H](O)[C@H](OC)C2)CC(=O)[C@H](C)/C=C(\C)[C@@H](O)[C@@H](OC)C(=O)[C@H](C)C[C@H](C)/C=C/C=C/C=C/1C [sirolimus]
